Experimental data taken from patent US9573899B2, “USP7 inhibitor compounds and methods of use” (Genentech, Inc., priority 2015, dated 2017).

Columns and labels:
[1] = test system: MCF-7, U Os, normal osteoblast, MDA-MB157 and SaOs cell lines; experiment: CellTiter-Glo viability of tumor, matched normal and p53 null cell lines (FIG. 9); format: cell-based
Protocol: 2,500-5,000 cells were seeded in 1-well of a 96-well plate (Corning; 3904). The following day, the media was changed from normal (10%) to low serum (0.5%) containing vehicle (DMSO) or compounds. 16-24 h later FBS was added to each well to bring serum levels back to normal (10%). Cells were then allowed to grow for 2 days. All treatments were done in triplicate.
Seventy two hours after compounds were added, CellTitre Glo (CTG) reagent was added following the protocol provided by the manufacturer (Promega). In the experiment to test compound dependency on USP7, 3× more USP7 null cells were plated per well (7,500 vs. 2,500 for wild-type (WT) cells), given the slower proliferation of USP7 null cells. For the multiple myeloma experiment, cells seeded in low serum and treated with compounds immediately. Twenty four hours later, serum was added back to normal levels. CTG assay was done 24 h later i.e. 48 h after compounds were added instead of 72 hrs later for the adherent cells.

[2] = test system: p53 and p21 in p53 wild-type breast cancer and osteosarcoma cells; experiment: Western blot of p53 and p21 in breast cancer, osteosarcoma and normal cells (FIG. 12A); format: cell-based; details: 15 μM, <24 h, low serum; p53 wild-type breast cancer and osteosarcoma cells but not normal cells
Protocol: In 24-well plates, 0.10-0.15×10^6 (adherent) or 0.5×10^6 (suspension) cells were treated with 15 μM or 2.5 μM compounds, respectively, for 24 h in low serum prior to lysis for Western Blot analysis.

[3] = biological target: T1, USP7, full-length, native C-Terminus (Homo sapiens, UniProt Q93009); experiment: Biochemical USP7 assay with Ubiquitin-Rho110 substrate, compounds pre-incubated with USP7 (USP7_Ub-Rho preInc); details: compounds pre-mixed with USP7, 1 hour incubation, before substrate; read-out: USP7 Ub-Rho preInc (IC50)
T1 construct: USP7, full-length, native C-Terminus, 0.2 nM
T1 sequence (Q93009 whole entry): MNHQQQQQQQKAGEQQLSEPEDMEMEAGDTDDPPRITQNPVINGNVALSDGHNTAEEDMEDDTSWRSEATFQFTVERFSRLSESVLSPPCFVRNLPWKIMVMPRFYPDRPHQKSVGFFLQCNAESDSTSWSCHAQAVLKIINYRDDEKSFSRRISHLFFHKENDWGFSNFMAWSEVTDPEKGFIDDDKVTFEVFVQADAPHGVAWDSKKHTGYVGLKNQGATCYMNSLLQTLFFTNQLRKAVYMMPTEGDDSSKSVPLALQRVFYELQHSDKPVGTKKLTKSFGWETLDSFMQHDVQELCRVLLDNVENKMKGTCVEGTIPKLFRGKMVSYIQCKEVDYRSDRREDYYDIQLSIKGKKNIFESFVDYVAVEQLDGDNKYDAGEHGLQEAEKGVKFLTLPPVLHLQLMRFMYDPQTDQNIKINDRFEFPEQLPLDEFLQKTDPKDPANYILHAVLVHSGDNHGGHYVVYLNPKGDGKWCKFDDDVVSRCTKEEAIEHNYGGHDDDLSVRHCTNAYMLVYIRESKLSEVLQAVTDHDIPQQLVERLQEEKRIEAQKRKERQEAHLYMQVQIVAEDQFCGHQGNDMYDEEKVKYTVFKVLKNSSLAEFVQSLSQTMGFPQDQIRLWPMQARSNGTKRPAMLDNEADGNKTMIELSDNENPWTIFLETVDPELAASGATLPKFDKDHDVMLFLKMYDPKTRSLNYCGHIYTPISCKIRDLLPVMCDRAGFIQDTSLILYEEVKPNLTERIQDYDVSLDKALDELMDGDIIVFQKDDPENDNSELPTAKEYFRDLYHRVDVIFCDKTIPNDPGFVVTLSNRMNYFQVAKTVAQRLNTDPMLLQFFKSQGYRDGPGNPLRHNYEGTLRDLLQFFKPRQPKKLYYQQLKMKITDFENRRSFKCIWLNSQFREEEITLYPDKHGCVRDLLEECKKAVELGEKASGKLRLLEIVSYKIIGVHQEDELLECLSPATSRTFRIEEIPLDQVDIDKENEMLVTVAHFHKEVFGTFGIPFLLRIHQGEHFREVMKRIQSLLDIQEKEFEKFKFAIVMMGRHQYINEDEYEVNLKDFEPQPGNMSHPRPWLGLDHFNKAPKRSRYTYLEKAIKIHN
Method in brief: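 Full-length USP7 (0.2 nM) cleaving Ubiquitin-Rho110 (1 uM) in pH 7.5 Tris buffer with DTT, 1 h at room temperature, acetic-acid quenched; Rho110 fluorescence at 485/535 nm. Pre-incubation variant: compound and USP7 mixed 1 h before substrate addition. IC50 from % inhibition versus no-enzyme and uninhibited controls.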

IC50 [3]: 2100 nM
SMILES: CCc1c(-c2ccc3[nH]ncc3c2)cnc(N)c1-c1ccc(O)cc1 [Compound 88, 4-[2-amino-4-ethyl-5-(1H-indazol-5-yl)-3-pyridyl]phenol]
cell viability (CellTiter-Glo), wild-type p53 tumor cell lines ([1]; MCF-7 and U Os, relative to compound 89): decreased viability | cell viability (CellTiter-Glo), matched normal and p53 null cell lines ([1]; normal osteoblast cell lines, p53 null MDA-MB157 and SaOs): do not show similar decreases in cell viability | p53 and p21 levels (western blot) [2]: increases p53 and p21 levels
